In ChEMBL document CHEMBL4304799, “Primaquine homodimers as potential antiplasmodial and anticancer agents” (Bioorg Med Chem Lett, 2019):
One block for each molecule: values may come before it. Activity calls are given as the source filed them. No cut-off for these calls is given here.

How the values were obtained:
MCF7 = assay: Antiproliferative activity against human MCF7 cells measured after 72 hrs by MTT assay; format: functional, cell-based; settings: MCF7, 72 h
NCI-H460 = assay: Antiproliferative activity against human H460 cells measured after 72 hrs by MTT assay; format: functional, cell-based; settings: NCI-H460, 72 h
HEK293 = assay: Antiproliferative activity against human HEK293 cells measured after 72 hrs by MTT assay; format: cell-based; settings: HEK293, 72 h
Plasmodium berghei [1] = assay: Antiplasmodial activity against liver stage luciferase expressing Plasmodium berghei sporozoites infected in human Huh7 cells preincubated with host cells for 1 hr followed by plasmodium infection at 1 and 10 uM; format: functional, organism-based
HCT-116 = assay: Antiproliferative activity against human HCT116 cells measured after 72 hrs by MTT assay; format: functional, cell-based; settings: HCT-116, 72 h
Plasmodium falciparum [2] = assay: Antiplasmodial activity against asexual chloroquine sensitive blood stage Plasmodium falciparum 3D7 measured as HRP2 levels after 3 days by ELISA; format: functional, organism-based; settings: 3D7, 72 h
Plasmodium berghei [3] = assay: Antiplasmodial activity against liver stage luciferase expressing Plasmodium berghei sporozoites infected in human Huh7 cells preincubated with host cells for 1 hr followed by plasmodium infection; format: functional, organism-based; settings: Huh-7
Plasmodium falciparum [4] = assay: Antiplasmodial activity against asexual chloroquine resistant blood stage Plasmodium falciparum Dd2 measured as HRP2 levels after 3 days by ELISA; format: functional, organism-based; settings: Dd2, 72 h
[5] = Selectivity index, ratio of IC50 for HEK293 cells to IC50 for human MCF7 cells; format: toxicity; settings: HEK293 cells versus MCF7 cells, read-out: Ratio IC50
[6] = Selectivity index, ratio of IC50 for HEK293 cells to IC50 for human HCT116 cells; format: toxicity; settings: HEK293 cells versus HCT116 cells, read-out: Ratio IC50
[7] = Selectivity index, ratio of IC50 for HEK293 cells to IC50 for human H460 cells; format: toxicity; settings: HEK293 cells versus H460 cells, read-out: Ratio IC50

Compound: COc1cc(NC(C)CCCNC(=O)CCC(=O)NCCCC(C)Nc2cc(OC)cc3cccnc23)c2ncccc2c1 (centres undefined)
IC50 (MCF7): 2.82 µM
IC50 (NCI-H460): 18.5 µM
IC50 (HEK293): 2.25 µM
Activity (Plasmodium berghei [1]): Active
IC50 (HCT-116): 11.3 µM
IC50 (Plasmodium falciparum [2]): 17.2 µM
IC50 (Plasmodium berghei [3]): 0.726 µM
IC50 (Plasmodium falciparum [4]): > 27.7 µM

IC50 (MCF7): 2.36 µM
IC50 (NCI-H460): 1.63 µM
IC50 (HCT-116): 4.31 µM
Compound: COc1cc(NC(C)CCCNC(=O)/C=C(\C)C(=O)NCCCC(C)Nc2cc(OC)cc3cccnc23)c2ncccc2c1 (centres undefined)
IC50 (HEK293): 10 µM

Compound: COc1cc(NC(C)CCCN)c2ncccc2c1 (centres undefined) [PRIMAQUINE PHOSPHATE]
IC50 (MCF7): 8.73 µM
IC50 (NCI-H460): 19.8 µM
IC50 (HEK293): 11 µM
Activity (Plasmodium berghei [1]): Active
IC50 (HCT-116): 14 µM
IC50 (Plasmodium falciparum [2]): 1.3 µM
IC50 (Plasmodium falciparum [4]): 1.9 µM

Compound: COc1cc(NC(C)CCCNC(=O)CCCCCCC(=O)NCCCC(C)Nc2cc(OC)cc3cccnc23)c2ncccc2c1 (centres undefined)
IC50 (MCF7): 1.85 µM
IC50 (NCI-H460): ≥ 100 µM
IC50 (HEK293): ≥ 100 µM
Activity (Plasmodium berghei [1]): Active
IC50 (HCT-116): ≥ 100 µM
IC50 (Plasmodium falciparum [2]): 23.1 µM
IC50 (Plasmodium falciparum [4]): 12.7 µM

IC50 (MCF7): 3.04 µM
IC50 (NCI-H460): 26.7 µM
IC50 (HCT-116): 26.1 µM
Compound: COc1cc(NC(C)CCCNC(=O)CCCCCC(=O)NCCCC(C)Nc2cc(OC)cc3cccnc23)c2ncccc2c1 (centres undefined)
IC50 (HEK293): 94.9 µM
selectivity ratio [5]: 1.6 to 31
selectivity ratio [6]: 1.6 to 31
selectivity ratio [7]: 1.6 to 31

Compound: COc1cc(NC(C)CCCNC(=O)CCCC(=O)NCCCC(C)Nc2cc(OC)cc3cccnc23)c2ncccc2c1 (centres undefined)
IC50 (MCF7): 3.37 µM
IC50 (NCI-H460): 10.3 µM
IC50 (HEK293): 26.4 µM
Activity (Plasmodium berghei [1]): Active
IC50 (HCT-116): 16.9 µM
selectivity ratio [5]: 1.6 to 31
IC50 (Plasmodium falciparum [2]): 16.5 µM
selectivity ratio [6]: 1.6 to 31
selectivity ratio [7]: 1.6 to 31
IC50 (Plasmodium falciparum [4]): > 27.7 µM

Compound: COc1cc(NC(C)CCCNC(=O)CCCCC(=O)NCCCC(C)Nc2cc(OC)cc3cccnc23)c2ncccc2c1 (centres undefined)
IC50 (MCF7): 1.78 µM
IC50 (NCI-H460): 2.49 µM
IC50 (HEK293): ≥ 100 µM
Activity (Plasmodium berghei [1]): Active
IC50 (HCT-116): 13.7 µM
selectivity ratio [5]: 7.3 to 56
IC50 (Plasmodium falciparum [2]): > 27.7 µM
selectivity ratio [6]: 7.3 to 56
selectivity ratio [7]: 7.3 to 56
IC50 (Plasmodium falciparum [4]): > 27.7 µM

IC50 (MCF7): 0.01 µM
IC50 (NCI-H460): 0.003 µM
IC50 (HCT-116): 0.01 µM
Compound: COc1cccc2c1C(=O)c1c(O)c3c(c(O)c1C2=O)C[C@@](O)(C(=O)CO)C[C@@H]3O[C@H]1C[C@H](N)[C@H](O)[C@H](C)O1 [DOXORUBICIN]
IC50 (HEK293): 0.018 µM

IC50 (MCF7): 3.14 µM
IC50 (NCI-H460): 14.1 µM
IC50 (HCT-116): 9.19 µM
Compound: COc1cc(NC(C)CCCNC(=O)/C=C\C(=O)NCCCC(C)Nc2cc(OC)cc3cccnc23)c2ncccc2c1 (centres undefined)
IC50 (HEK293): 17.5 µM
Activity (Plasmodium berghei [1]): Active
selectivity ratio [5]: 1.6 to 31
IC50 (Plasmodium berghei [3]): 0.358 µM
selectivity ratio [6]: 1.6 to 31
selectivity ratio [7]: 1.6 to 31

Compound: COc1cc(NC(C)CCCNC(=O)/C=C/C(=O)NCCCC(C)Nc2cc(OC)cc3cccnc23)c2ncccc2c1 (centres undefined)
IC50 (MCF7): 9.3 µM
IC50 (NCI-H460): ≥ 100 µM
IC50 (HEK293): ≥ 100 µM
Activity (Plasmodium berghei [1]): Active
IC50 (HCT-116): ≥ 100 µM
IC50 (Plasmodium falciparum [2]): 14.6 µM
IC50 (Plasmodium berghei [3]): 0.198 µM
IC50 (Plasmodium falciparum [4]): > 27.7 µM
